Consider one compound from publication PMC9613470, “Diverse MarR bacterial regulators of auxin catabolism in the plant microbiome” (Nature Microbiology, 2022).

Assay [1] deals with A. thaliana ecotype Col-0. The assay can be described thus: Root growth inhibition assay (primary root elongation). The assay is classed as in vivo, Arabidopsis thaliana. To be noted: Arabidopsis seedlings with IAA alone, 1 µM IAA. Here is the method: A. thaliana ecotype Col-0 seeds were sterilized in 70% household bleach, 0.2% Tween-20 for 10 min with vigorous agitation and then rinsed 10 times with sterile distilled water. Seeds were stratified at 4 °C in sterile distilled water for 1–2 d. […] Then 8 to 10 plants were aseptically transferred to 12 ×12 cm plates containing 0.5x MS agar medium without sucrose where the medium surface was spread with the bacterial inoculum. […] The plant root tip location was marked on plates after transfer to record the initial root tip position. […] Plates were imaged on a document scanner and primary root elongation was determined using imageJ to quantify the change in root tip position from the initial to the final position.
Individual bacterial strains were grown on agar plates of the media types specified above at 28 °C. […] The optical density at 600 nm (OD600) was measured for each washed strain and normalized to OD600 of 0.01 in 10 mM MgCl2. […]
The 175-member synthetic community (SC185-10V) was prepared as described for the 185-member synthetic community used previously[14] by leaving out the 10 isolates from the genus Variovorax. […] The OD600 of the strains in each well was measured and the strains were combined while normalizing the OD600 of each strain in the pool. […] The OD600 values of the 10 cultures were measured and the 10 strains were pooled while normalizing the OD600 of each strain to the same value. […]

The target of assay [2] is Variovorax paradoxus CL14 MarR_50. The assay can be described thus: ITC IAA binding to MarR_50 (IadR2). To be noted: 25 °C, IadR2 (MarR_50-like). Here is the method: (§1) The coding sequence for each gene can be found in Supplementary Table 10. MarR expression plasmids were synthesized as codon-optimized genes for E. coli expression by BioBasic in the pLIC-His N-term vector (pMCSG7) and transformed into E. coli BL21 (DE3) Gold cells for expression. […] At an OD600 of 0.8, protein expression was induced by the addition of 0.1 mM IPTG and incubation continued overnight. Cells were collected by centrifugation at 4,500 × g for 20 min at 4 °C in a Sorvall (model RC-3B) swinging bucket centrifuge. Cell pellets were resuspended in buffer A (20 mM potassium phosphate, pH 7.4, 50 mM imidazole, 500 mM NaCl), DNase, lysozyme and a Roche Complete EDTA-free protease inhibitor tablet. Resuspended cells were sonicated and clarified via centrifugation at 17,000 × g for 60 min in a Sorvall (model RC-5B) swinging bucket centrifuge. The lysate was applied to a nickel-nitrilotriacetic acid HP column (GE Healthcare) on an Aktaxpress Fast Performance Liquid Chromatography (FPLC) system (Amersham Bioscience) and washed with buffer A. Protein was eluted with buffer B (20 mM potassium phosphate, pH 7.4, 500 mM imidazole, 500 mM NaCl). Fractions containing the protein of interest were combined and passed over a HiLoadTM 16/60 SuperdexTM 200 gel filtration column. Proteins were eluted in S200 buffer (20 mM HEPES, pH 7.4, 300 mM NaCl). […]

Assay [3] has as its target Bradyrhizobium japonicum MarR_Bj1 (Bradyrhizobium japonicum, UniProt A0A0A3XYM8). The assay can be described thus: ITC IAA binding to MarR_Bj1. To be noted: 25 °C, IadR (MarR_73-like). How it is done: as §1
Assay [4] has as its target Bradyrhizobium japonicum MarR_Bj2. In words: ITC IAA binding to MarR_Bj2. To be noted: 25 °C, IadR2 (MarR_50-like). Here is the method: as §1
In another assay the target is MarR_73 S28A H32A R46A. In words: ITC IAA binding to MarR_73 S28A H32A R46A mutant. Details: species or system Variovorax paradoxus CL14. To be noted: 25 °C. How it is done: as §1
Assay [5] deals with Ruegaria pomeroyi MarR_3CDH (Ruegeria pomeroyi, UniProt Q5LTG1). In words: ITC IAA binding to MarR_3CDH. To be noted: 25 °C, IadR (MarR_73-like). Here is the method: The coding sequence for each gene can be found in Supplementary Table 10. MarR expression plasmids were synthesized as codon-optimized genes for E. coli expression by BioBasic in the pLIC-His N-term vector (pMCSG7) and transformed into E. coli BL21 (DE3) Gold cells for expression. […] At an OD600 of 0.8, protein expression was induced by the addition of 0.1 mM IPTG and incubation continued overnight. Cells were collected by centrifugation at 4,500 × g for 20 min at 4 °C in a Sorvall (model RC-3B) swinging bucket centrifuge. Cell pellets were resuspended in buffer A (20 mM potassium phosphate, pH 7.4, 50 mM imidazole, 500 mM NaCl), DNase, lysozyme and a Roche Complete EDTA-free protease inhibitor tablet. Resuspended cells were sonicated and clarified via centrifugation at 17,000 × g for 60 min in a Sorvall (model RC-5B) swinging bucket centrifuge. The lysate was applied to a nickel-nitrilotriacetic acid HP column (GE Healthcare) on an Aktaxpress Fast Performance Liquid Chromatography (FPLC) system (Amersham Bioscience) and washed with buffer A. Protein was eluted with buffer B (20 mM potassium phosphate, pH 7.4, 500 mM imidazole, 500 mM NaCl). Fractions containing the protein of interest were combined and passed over a HiLoadTM 16/60 SuperdexTM 200 gel filtration column. Proteins were eluted in S200 buffer (20 mM HEPES, pH 7.4, 300 mM NaCl). Fractions were combined and concentrated for long-term storage at −80 °C.
Ruegaria pomeroyi MarR_3CDH, sequence (Q5LTG1 entry or part of it): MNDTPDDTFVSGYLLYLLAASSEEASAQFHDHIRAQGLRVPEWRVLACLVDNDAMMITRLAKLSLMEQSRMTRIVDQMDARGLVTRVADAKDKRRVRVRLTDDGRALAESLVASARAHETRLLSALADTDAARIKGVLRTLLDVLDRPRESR
All ITC measurements were performed at 25 °C using an Auto-ITC200 microcalorimeter (MicroCal/GE Healthcare). The buffer employed was 20 mM HEPES, pH 7.4, 50 mM NaCl and 0.5% dimethly sulfoxide (DMSO) for protein/ligand binding and 20 mM HEPES, pH 7.4 and 300 mM NaCl for DNA/protein binding experiments. For ligand binding experiments, the calorimetry cell (volume […]) was loaded with MarR wild-type, mutant or homologue protein at a concentration of 50 μM. The syringe was loaded with a ligand concentration of 0.5 or 2 mM. […] A typical injection protocol included a single 0.2 μl first injection followed by 20 1.5 μl injections of the syringe sample into the calorimetry cell. The spacing between injections was kept at 180 s and the reference power at 8 μcal s^−1. […] Two independent ITC measurements were performed for each condition.

“Also recorded” adds a separate entry of the source. Read-outs that look alike come from different tables or passages of the source.

Bradyrhizobium japonicum MarR_Bj1, sequence (A0A0A3XYM8 entry or part of it): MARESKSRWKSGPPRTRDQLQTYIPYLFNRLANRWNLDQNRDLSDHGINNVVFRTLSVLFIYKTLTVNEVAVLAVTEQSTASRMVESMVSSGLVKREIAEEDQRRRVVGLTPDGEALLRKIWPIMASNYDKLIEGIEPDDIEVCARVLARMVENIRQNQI

As for `O=C(O)Cc1c[nH]c2ccccc12` [IAA, indole-3-acetic acid], the “root growth inhibition (RGI) phenotype” value in assay [1] was “severe RGI phenotype”. In addition, the results for the KD1 result in assay [2] and in assay [4] were “No Binding” and “did not bind; also recorded: No Binding”, respectively. In addition, the N1 came to 1.001 ± 0.069 in assay [3] and 0.411 ± 0.012 in assay [5] (first site). For the same compound, the KD result on MarR_73 S28A H32A R46A is given as “No Binding”. Moreover, the Kd came to 237 ± 99 nM in assay [5] (first site, read-out: KD1) and 6 nM in assay [5] (second site, read-out: KD2). Moreover, the N2 in assay [5] (second site) amounted to 0.216 ± 0.011.
